Where a name gives a salt, the structure may show the parent alone.
Experiments:
[1] = tested on: IL-6 secretion in human conjunctival epithelial cells; assay: Inhibition of histamine-stimulated IL-6 secretion from cultured human conjunctival epithelial cells (ELISA); type: cell-based; details: for potency in intact cells / inhibition of secretion compared with receptor binding: IL-6 and IL-8 secretion
Source text: Methods detailing the preparation of primary epithelial cell cultures and cytokine release studies using these cells have been described. […] Briefly, cultures of human conjunctival epithelial cells were initiated from donor tissues obtained within eight hours post mortem by various eye banks. The tissues were enzymatically digested overnight. Epithelial cells were gently scraped from the tissue surface, dissociated into a single cell suspension, and cultured in keratinocyte growth medium (Clonetics®, San Diego, Calif.). Cells were used only through passage 6. Cultures were maintained in a preconfluent state to prevent differentiation.
Several compounds with histamine H1 antagonist activity were evaluated for their ability to inhibit secretion of cytokines (IL-6 and IL-8) from cultured human conjunctival epithelial cells in response to histamine stimulation. Cells were plated at 2×10^4 cells/well and cultured overnight at 5% CO2 /37° C. The following day, fresh medium containing test compound was added directly to wells and the cells were incubated for 30 minutes prior to 24-hour stimulation with histamine (30 μM). Three separate culture wells were used for each treatment group. At harvest, supernatants were collected, centrifuged at 200× g, and stored at -20° C. Samples were analyzed for IL-6 and IL-8 by ELISA (R&D Systems, Minneapolis, Minn.) as directed by the manufacturer. The sensitivities of each ELISA are as follows: IL-6 0.7 pg/ml and IL-8 3.0 pg/ml.
Data derived from the cytokine assays were calculated as mean and standard error (SEM) values which represent the variability among identically treated culture wells. The dose-dependent effect of pharmacological agents and IC50 's were determined by linear regression. Data are expressed as mean ±S.E.M. from 3-5 independent experiments.

[2] = cited from earlier work; for activity taught in U.S. Pat. Nos. 4,871,865 and 4,923,892: Burroughs Wellcome Patents
[3] = tested on: IL-8 secretion in human conjunctival epithelial cells; assay: Inhibition of histamine-stimulated IL-8 secretion from cultured human conjunctival epithelial cells (ELISA); type: cell-based; details: Epithelial cell, 24 h, read-out: increase of IL-8 secretion above basal levels
Source text: Methods detailing the preparation of primary epithelial cell cultures and cytokine release studies using these cells have been described. See Gamache, et al., "Secretion of proinflammatory cytokines by human conjunctival epithelial cells," Ocul Immunol Inflamm., 5:117-128 (1997). Briefly, cultures of human conjunctival epithelial cells were initiated from donor tissues obtained within eight hours post mortem by various eye banks. The tissues were enzymatically digested overnight. Epithelial cells were gently scraped from the tissue surface, dissociated into a single cell suspension, and cultured in keratinocyte growth medium (Clonetics®, San Diego, Calif.). Cells were used only through passage 6. Cultures were maintained in a preconfluent state to prevent differentiation. Cells were identified as epithelial by positive keratin staining.
Several compounds with histamine H1 antagonist activity were evaluated for their ability to inhibit secretion of cytokines (IL-6 and IL-8) from cultured human conjunctival epithelial cells in response to histamine stimulation. Cells were plated at 2×10^4 cells/well and cultured overnight at 5% CO2 /37° C. […] Samples were analyzed for IL-6 and IL-8 by ELISA (R&D Systems, Minneapolis, Minn.) as directed by the manufacturer. […]

[4] = IL-6 and IL-8 secretion versus H1 binding

For CCOCCn1c(N2CCCN(C)CC2)nc2ccccc21 [Emedastine, 1H-Benzimidazole,1-(2-ethoxyethyl)-2-(hexahydro-4-methyl-1H-1,4-diazepin-1-yl),(E)-2-butenedioate (1:2)], which “potency in intact cells / inhibition of secretion compared with receptor binding” value [1] is on record?
The value was “consistent with its activity determined in receptor binding assays”.

For CN(C)CC/C=C1/c2ccccc2COc2ccc(CC(=O)O)cc21 [Olopatadine, Z-11-(3-Dimethylaminopropylidene)-6,11-dihydrodibenz[b,e]oxepin-2-acetic acid], which “more potent inhibitor of cytokine secretion than predicted from binding data” value [1, 4] is on record?
Its value is “approximately 10 fold”.

And the “activity taught in U.S. Pat. No. 5,116,863” value ([2]; Kyowa patent, Wistar male rats)?
Its value is “anti-allergic and anti-inflammatory activity”.

With c1ccc(CN(CC2=NCCN2)c2ccccc2)cc1 [Antazoline, 4,5-Dihydro-N-phenyl-N-(phenylmethyl)-1H-imidazole-2-methanamine] as the molecule, how does the “less potent inhibitor of IL-6 and IL-8 secretion than predicted from histamine H1-receptor binding affinity” value [1, 4] read?
Its value is 20-140 fold.

With CN(C)CCC(c1ccccc1)c1ccccn1 (stereo not shown) [Pheniramine, N,N-Dimethyl-γ-phenyl-2-pyridine-propanamine] as the molecule, how does the “less potent inhibitor of IL-6 and IL-8 secretion than predicted from histamine H1-receptor binding affinity” value [1, 4] read?
The value was 20-140 fold.

With C[C@@H]1CN([C@H]2CC[C@](C#N)(c3ccc(F)cc3)CC2)CC[C@]1(C(=O)O)c1ccccc1 [Levocabastine, (-)-trans-1-[cis-4-Cyano-4-(p-fluorophenyl)cyclohexyl]-3-methyl-4-phenylisonipecotic acid monohydrochloride] as the molecule, how does the “potency in intact cells / inhibition of secretion compared with receptor binding” value [1] read?
The value was “at a level consistent with its H1 -receptor binding affinity”.

With CN(C)CCC=C1c2ccccc2COc2ccc(C(=O)O)cc21 [11-(3-dimethylaminopropylidene)-6,11-dihydrodibenz[b,e]oxepine-2-carboxylic acid] as the molecule, how does the “activity taught in U.S. Pat. Nos. 4,871,865 and 4,923,892” value [2] read?
Its value is “antihistaminic and antiasthmatic activity”.

For CN(C)CCC=C1c2ccccc2COc2ccc(/C=C/C(=O)O)cc21 [11-(3-dimethylamino-propylidene)-6,11-dihydrodibenz[b,e]oxepine-2(E)-acrylic acid], which “activity taught in U.S. Pat. Nos. 4,871,865 and 4,923,892” value [2] is on record?
The value was “antihistaminic and antiasthmatic activity”.

For NCCc1c[nH]cn1 [histamine], which fold induction at 30 µM ([1]; Homo sapiens, Epithelial cell, 24 h, read-out: increase of IL-6 secretion above basal levels) is on record?
Its fold induction at 30 µM is 1.59 ± 0.19.

And the fold induction at 30 µM [3]?
Its fold induction at 30 µM is 1.8 ± 0.28.
